# Target: KCNT1 (KNa1.1, Slack) (Homo sapiens (Human), UniProt Q5JUK3)
# Experiment: KCNT1-WT-Basal - Patch Clamp Assay
# Format: cell-based
# Conditions: tetracycline inducible HEK-TREX cell line; SyncroPatch 384PE automated patch clamp; step to 0 mV; room temperature
# Method: Inhibition of KCNT1 (KNa1.1, Slack) was evaluated using a tetracycline inducible cell line (HEK-TREX). Currents were recorded using the SyncroPatch 384PE automated, patch clamp system. Pulse generation and data collection were performed with PatchController384 V1.3.0 and DataController384 V1.2.1 (Nanion Technologies). The access resistance and apparent membrane capacitance were estimated using built-in protocols. Current were recorded in perforated patch mode (10 µM escin) from a population of cells. The cells were lifted, triturated, and resuspended at 800,000 cells/ml. The cells were allowed to recover in the cell hotel prior to experimentation. Currents were recorded at room temperature. The external solution contained the following (in mM): NaCl 105, NMDG 40, KC1 4, MgC12 1, CaC12 5 and HEPES 10 (pH = 7.4, Osmolarity ~300 mOsm). The extracellular solution was used as the wash, reference and compound delivery solution. The internal solution contained the following (in mM): NaCl 70, KF 70, KC1 10, EGTA 5, HEPES 5 and Escin 0.01 (pH = 7.2, Osmolarity ~295 mOsm). Escin is made at a 5 mM stock in water, aliquoted, and stored at -20° C. The compound plate was created at 2x concentrated in the extracellular solution. The compound was diluted to 1:2 when added to the recording well. The amount of DMSO in the extracellular solution was held constant at the level used for the highest tested concentration. A holding potential of -80 mV with a 100 ms step to 0 mV was used. Mean current was measured during the step to 0 mV. […] The average mean current from 3 sweeps was calculated and the % inhibition of each compound was calculated. The % Inhibition as a function of the compound concentration was fit with a Hill equation to derive IC50, slope, min and max parameters. If KCNT1 inhibition was less than 50% at the highest tested concentration or if an IC50 could not be calculated, then a percent inhibition was reported in place of the IC50.
# In this table, “A” indicates IC50 of less than or equal to 1 µM; “B” indicates inhibition of between 1 µM to 20 µM; and “C” indicates inhibition of greater than or equal to 20 µM.
# KCNT1 (KNa1.1, Slack), sequence (Q5JUK3 whole entry): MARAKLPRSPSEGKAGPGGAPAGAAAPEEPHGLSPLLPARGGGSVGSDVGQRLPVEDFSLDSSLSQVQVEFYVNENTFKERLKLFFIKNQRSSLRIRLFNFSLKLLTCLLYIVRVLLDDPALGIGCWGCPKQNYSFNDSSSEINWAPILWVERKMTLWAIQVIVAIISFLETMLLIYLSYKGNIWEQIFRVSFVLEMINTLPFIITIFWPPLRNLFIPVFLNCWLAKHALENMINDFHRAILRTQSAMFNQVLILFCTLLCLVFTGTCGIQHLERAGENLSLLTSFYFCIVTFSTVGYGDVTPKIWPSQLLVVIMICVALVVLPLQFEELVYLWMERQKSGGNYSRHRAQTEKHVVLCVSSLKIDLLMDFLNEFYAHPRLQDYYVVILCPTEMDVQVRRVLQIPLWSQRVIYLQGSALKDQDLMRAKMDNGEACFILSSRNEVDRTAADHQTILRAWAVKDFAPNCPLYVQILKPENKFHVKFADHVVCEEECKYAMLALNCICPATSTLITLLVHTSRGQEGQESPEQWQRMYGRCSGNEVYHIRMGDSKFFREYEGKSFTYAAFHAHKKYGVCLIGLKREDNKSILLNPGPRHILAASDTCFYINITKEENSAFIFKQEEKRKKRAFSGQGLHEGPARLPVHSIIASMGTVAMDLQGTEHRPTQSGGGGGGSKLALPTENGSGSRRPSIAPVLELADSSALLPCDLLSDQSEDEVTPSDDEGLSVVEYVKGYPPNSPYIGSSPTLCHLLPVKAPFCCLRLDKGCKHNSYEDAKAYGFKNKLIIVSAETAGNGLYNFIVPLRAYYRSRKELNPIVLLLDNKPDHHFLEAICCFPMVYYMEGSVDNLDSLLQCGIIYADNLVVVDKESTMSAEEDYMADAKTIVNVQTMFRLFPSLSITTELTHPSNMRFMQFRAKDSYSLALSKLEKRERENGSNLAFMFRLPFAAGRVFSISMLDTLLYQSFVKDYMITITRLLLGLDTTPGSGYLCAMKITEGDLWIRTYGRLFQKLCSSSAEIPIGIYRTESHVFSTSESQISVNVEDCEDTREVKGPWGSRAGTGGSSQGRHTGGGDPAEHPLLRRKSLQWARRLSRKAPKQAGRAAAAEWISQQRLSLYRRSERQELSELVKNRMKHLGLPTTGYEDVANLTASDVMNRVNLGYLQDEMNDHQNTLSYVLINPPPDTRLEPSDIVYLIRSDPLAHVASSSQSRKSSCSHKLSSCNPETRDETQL
row,IC50,SMILES
1,≤ 1000 nM,"C[C@H](NC(=O)c1cccc(Cl)c1)c1nc(-c2ccnc(C3CC3)c2)ns1 (single isomer, unassigned) [Example 6]"
2,≤ 1000 nM,"C[C@@H](NC(=O)c1cccc(Cl)c1)c1nc(-c2ccnc(C3CC3)c2)ns1 (single isomer, unassigned) [Example 7]"
3,≤ 1000 nM,"C[C@@H](NC(=O)c1cc(C(F)(F)F)nn1C)c1nc(-c2ccnc(C(F)(F)F)c2)ns1 (single isomer, unassigned) [Example 10]"
4,≤ 1000 nM,"C[C@H](NC(=O)c1cc(C(F)(F)F)nn1C)c1nc(-c2ccnc(C(F)(F)F)c2)ns1 (single isomer, unassigned) [Example 11]"
5,≤ 1000 nM,"C[C@H](NC(=O)c1cc(C(F)(F)F)nn1C)c1nc(-c2ccnc(C3CC3)c2)ns1 (single isomer, unassigned) [Example 12]"
6,≤ 1000 nM,"C[C@@H](NC(=O)c1cc(C(F)(F)F)nn1C)c1nc(-c2ccnc(C3CC3)c2)ns1 (single isomer, unassigned) [Example 13]"
7,≤ 1000 nM,"C[C@H](NC(=O)c1ccccc1)c1cc(-c2ccnc(C3CC3)c2)no1 (single isomer, unassigned) [Example 14]"
8,1000 to 20000 nM,"C[C@@H](NC(=O)c1ccccc1)c1cc(-c2ccnc(C3CC3)c2)no1 (single isomer, unassigned) [Example 15]"
9,≤ 1000 nM,"C[C@@H](NC(=O)c1cc(C(F)(F)F)nn1C)c1cc(-c2ccnc(C3CC3)c2)no1 (single isomer, unassigned) [Example 16]"
10,1000 to 20000 nM,"C[C@H](NC(=O)c1cc(C(F)(F)F)nn1C)c1cc(-c2ccnc(C3CC3)c2)no1 (single isomer, unassigned) [Example 17]"
11,1000 to 20000 nM,"C[C@H](NC(=O)c1cccc(Cl)c1)c1cc(-c2ccnc(C3CC3)c2)no1 (single isomer, unassigned) [Example 18]"
12,≤ 1000 nM,"C[C@@H](NC(=O)c1cccc(Cl)c1)c1cc(-c2ccnc(C3CC3)c2)no1 (single isomer, unassigned) [Example 19]"
13,1000 to 20000 nM,"C[C@@H](NC(=O)c1cccc(Cl)c1)c1cc(-c2ccnc(C(F)(F)F)c2)no1 (single isomer, unassigned) [Example 20]"
14,≤ 1000 nM,"C[C@H](NC(=O)c1cccc(Cl)c1)c1cc(-c2ccnc(C(F)(F)F)c2)no1 (single isomer, unassigned) [Example 21]"
15,1000 to 20000 nM,"C[C@H](NC(=O)c1ccccc1)c1cc(-c2ccnc(C(F)(F)F)c2)no1 (single isomer, unassigned) [Example 23]"
16,1000 to 20000 nM,"COCc1cc(-c2nsc([C@H](C)NC(=O)c3cc(C(F)(F)F)nn3C)n2)ccn1 (single isomer, unassigned) [Example 42]"
17,1000 to 20000 nM,"COCc1cc(-c2nsc([C@@H](C)NC(=O)c3cc(C(F)(F)F)nn3C)n2)ccn1 (single isomer, unassigned) [Example 43]"
18,≤ 1000 nM,"CC(NC(=O)c1cc(C(F)(F)F)nn1C)c1nc(-c2ccnc(C(F)(F)F)c2)ns1 (stereo not drawn) [Example 1, 1-methyl-3-(trifluoromethyl)-N-(1-(3-(2-(trifluoromethyl)pyridin-4-yl)-1,2,4-thiadiazol-5-yl)ethyl)-1H-pyrazole-5-carboxamide]"
19,1000 to 20000 nM,"Cc1cc(-c2nsc([C@H](C)NC(=O)c3cc(C(F)(F)F)nn3C)n2)ccn1 [Example 40, 2-methyl-N-[(1S)-1-[3-(2-methyl-4-pyridyl)-1,2,4-thiadiazol-5-yl]ethyl]-5-(trifluoromethyl)pyrazole-3-carboxamide]"
20,1000 to 20000 nM,"Cc1cc(-c2nsc([C@@H](C)NC(=O)c3cc(C(F)(F)F)nn3C)n2)ccn1 [Example 41, (R)-1-methyl-N-(1-(3-(2-methylpyridin-4-yl)-1,2,4-thiadiazol-5-yl)ethyl)-3-(trifluoromethyl)-1H-pyrazole-5-carboxamide]"
21,≤ 1000 nM,"COc1cc(-c2nsc([C@H](C)NC(=O)c3cc(C(F)(F)F)nn3C)n2)ccn1 [Example 44, 2-methyl-N-[(1S)-1-[3-(2-methoxy-4-pyridyl)-1,2,4-thiadiazol-5-yl]ethyl]-5-(trifluoromethyl)pyrazole-3-carboxamide]"
22,≤ 1000 nM,"COc1cc(-c2nsc([C@@H](C)NC(=O)c3cc(C(F)(F)F)nn3C)n2)ccn1 [Example 45, 2-methyl-N-[(1R)-1-[3-(2-methoxy-4-pyridyl)-1,2,4-thiadiazol-5-yl]ethyl]-5-(trifluoromethyl)pyrazole-3-carboxamide]"

# Further lines, the compound ahead of its results:
row,SMILES,IC50
1,"C[C@H](NC(=O)c1cc(C(F)(F)F)nn1C)c1cc(-c2ccnc(C(F)(F)F)c2)no1 (single isomer, unassigned) [Example 2]",≤ 1000 nM
2,"C[C@@H](NC(=O)c1cc(C(F)(F)F)nn1C)c1cc(-c2ccnc(C(F)(F)F)c2)no1 (single isomer, unassigned) [Example 3]",1000 to 20000 nM
3,"C[C@H](NC(=O)N1CCCCC1)c1cc(-c2ccnc(C(F)(F)F)c2)no1 (single isomer, unassigned) [Example 8]",≥ 20000 nM
4,"C[C@@H](NC(=O)N1CCCCC1)c1cc(-c2ccnc(C(F)(F)F)c2)no1 (single isomer, unassigned) [Example 9]",1000 to 20000 nM
5,"C[C@@H](NC(=O)c1ccccc1)c1cc(-c2ccnc(C(F)(F)F)c2)no1 (single isomer, unassigned) [Example 22]",≥ 20000 nM
6,"CC(C)c1cc(C(=O)N[C@H](C)c2cc(-c3ccnc(C(F)(F)F)c3)no2)n(C)n1 (single isomer, unassigned) [Example 24]",1000 to 20000 nM
7,"CC(C)c1cc(C(=O)N[C@@H](C)c2cc(-c3ccnc(C(F)(F)F)c3)no2)n(C)n1 (single isomer, unassigned) [Example 25, (N)-3-isopropyl-1-methyl-N-(1-(3-(2-(trifluoromethyl)pyridin-4-yl)isoxazol-5-yl)ethyl)-1H pyrazole-5-carboxamide]",≤ 1000 nM
8,"C[C@@H](NC(=O)C1CCCCC1)c1cc(-c2ccnc(C(F)(F)F)c2)no1 (single isomer, unassigned) [Example 26]",≥ 20000 nM
9,"C[C@H](NC(=O)C1CCCCC1)c1cc(-c2ccnc(C(F)(F)F)c2)no1 (single isomer, unassigned) [Example 27]",1000 to 20000 nM
10,"C[C@@H](NC(=O)Cc1ccccc1)c1cc(-c2ccnc(C(F)(F)F)c2)no1 (single isomer, unassigned) [Example 28]",≥ 20000 nM
11,"C[C@H](NC(=O)Cc1ccccc1)c1cc(-c2ccnc(C(F)(F)F)c2)no1 (single isomer, unassigned) [Example 29]",1000 to 20000 nM
12,"C[C@@H](NC(=O)c1cc(C(F)F)nn1C)c1cc(-c2ccnc(C(F)(F)F)c2)no1 (single isomer, unassigned) [Example 30]",1000 to 20000 nM
13,"C[C@H](NC(=O)c1cc(C(F)F)nn1C)c1cc(-c2ccnc(C(F)(F)F)c2)no1 (single isomer, unassigned) [Example 31]",≤ 1000 nM
14,"C[C@H](NC(=O)c1cccc(C(F)(F)F)c1)c1cc(-c2ccnc(C(F)(F)F)c2)no1 (single isomer, unassigned) [Example 32]",≤ 1000 nM
15,"C[C@@H](NC(=O)c1cccc(C(F)(F)F)c1)c1cc(-c2ccnc(C(F)(F)F)c2)no1 (single isomer, unassigned) [Example 33]",1000 to 20000 nM
16,"C[C@H](NC(=O)N1CCCc2ccccc21)c1cc(-c2ccnc(C(F)(F)F)c2)no1 (single isomer, unassigned) [Example 34]",1000 to 20000 nM
17,"C[C@@H](NC(=O)N1CCCc2ccccc21)c1cc(-c2ccnc(C(F)(F)F)c2)no1 (single isomer, unassigned) [Example 35]",≤ 1000 nM
18,"C[C@@H](NC(=O)c1ccnn1C1CCC1)c1cc(-c2ccnc(C(F)(F)F)c2)no1 (single isomer, unassigned) [Example 36]",≤ 1000 nM
19,"C[C@H](NC(=O)c1ccnn1C1CCC1)c1cc(-c2ccnc(C(F)(F)F)c2)no1 (single isomer, unassigned) [Example 37]",1000 to 20000 nM
20,"C[C@H](NC(=O)N1CCOc2ccccc21)c1cc(-c2ccnc(C(F)(F)F)c2)no1 (single isomer, unassigned) [Example 38]",1000 to 20000 nM
21,"C[C@@H](NC(=O)N1CCOc2ccccc21)c1cc(-c2ccnc(C(F)(F)F)c2)no1 (single isomer, unassigned) [Example 39]",≤ 1000 nM
22,"C[C@H](NC(=O)c1ccccc1)c1nc(-c2ccnc(C3CC3)c2)ns1 [Example 4, (S)-N-(1-(3-(2-cyclopropylpyridin-4-yl)-1,2,4-thiadiazol-5-yl)ethyl)benzamide]",≤ 1000 nM
23,"C[C@@H](NC(=O)c1ccccc1)c1nc(-c2ccnc(C3CC3)c2)ns1 [Example 5, (R)-N-(1-(3-(2-cyclopropylpyridin-4-yl)-1,2,4-thiadiazol-5-yl)ethyl)benzamide]",≤ 1000 nM
